Results reported in patent US10196362B2, “Carbamate compound and use thereof” (SUMITOMO CHEMICAL COMPANY, LIMITED, priority 2015, dated 2019).

How the values were obtained:
[1] = test system: wheat speckled leaf blotch fungus (Septoria tritici); assay: Test Example 5: wheat speckled leaf blotch, foliar spray pot test; assay type: in vivo; conditions: wheat (Apogee), 500 ppm foliar spray, Formulation Example 6, inoculated after 4 days
[2] = test system: soybean rust (Phakopsora pachyrhizi); assay: Test Example 7: soybean rust, foliar spray pot test; assay type: in vivo; conditions: soybean (Kurosengoku), 200 ppm foliar spray, Formulation Example 6, inoculated after 4 days

In the case of COC(=O)N(OC)c1ccccc1COc1ccc(-n2nc(C)cc2C)cc1C [methyl N-(2-{[2-methyl-4-(3,5-dimethyl-1H-pyrazol-1-yl)phenoxy]methyl}phenyl)-N-methoxy carbamate], the “area of the lesion on treated plant relative to untreated plant” value [1] is reported as no less than 70%.
In the case of COC(=O)Nc1ccccc1COc1ccc(-n2cccn2)cc1 [methyl N-(2-{[4-(1H-pyrazol-1-yl)phenoxy)methyl}phenyl)carbamate], the “area of the lesion on treated plant relative to untreated plant” value [2] is reported as no less than 70%.
